The source of these data is PubChem BioAssay AID504877 (The Scripps Research Institute Molecular Screening Center, 2011).

For the test, the target named is Sphingosine 1-phosphate receptor 4 (Homo sapiens) (UniProt O95977). In words: S1P4 receptor agonist potency, late-stage follow-up, cell-based, fluorescence, dose response, synthesized compounds set 2 (AID 504877). Conditions: S1P4 cell-based agonist assay, fluorescence read-out.

Each structure is given as a SMILES string. Several values for one entry are separate records, joined by “and”; a condition that tells them apart may be missing. Equal entries are not always repeated. Activity calls are given as the source filed them. How the calls were made is not given here. A value given as a limit tells only on which side of the number the result lay.

In the case of `CN=C1S/C(=C/c2cc(C)n(Cc3ccccc3)c2C)C(=O)N1C`, the 50% effective concentration (EC50) reads like this: (run 1) 203 nM; (run 2) 454 nM; (run 3) 130 nM.

In the case of `CCN=C1S/C(=C/c2cc(C)n(-c3ccccn3)c2C)C(=O)N1CC`, the EC50 is 158 nM (run 1), 212 nM (run 2) and 102 nM (run 3).

Take `CCN=C1S/C(=C\c2ccn(-c3ccccc3F)c2)C(=O)N1CC`: the EC50 is > 50000 nM (inactive) (run 1) and > 50000 nM (inactive) (run 2). The EC50 result (run 3) is “inactive”.

With `CCN=C1S/C(=C\c2cc(C)n(Cc3ccccc3F)c2C)C(=O)N1CC`, the EC50 reads like this: (run 1) > 50000 nM (inactive); (run 2) > 50000 nM (inactive); (run 3) > 50000 nM (inactive).

For `CC/N=C1/SC(=Cc2cc(C)n(Cc3ccccc3OC)c2C)C(=O)N1CC`, the EC50 was 274 nM (run 1), 663 nM (run 2) and 285 nM (run 3).

On to `CCN=C1S/C(=C/c2cc(C)n(Cc3ccccc3)c2C)C(=O)N1CC`, for which the EC50 runs as follows: (run 1) 598 nM; (run 2) 703 nM; (run 3) 154 nM.

On to `CCN=C1S/C(=C/c2cc(C)n(-c3ccc(F)cc3F)c2C)C(=O)N1CC`, for which the EC50 reads like this: (run 1) 75.3 nM; (run 2) 133 nM; (run 3) 104 nM.

As for `Cc1cc(/C=C2\SC(=NC(C)C)N(C(C)C)C2=O)c(C)n1-c1ccccc1F`, the EC50 is, setting by setting: (run 1) > 50000 nM (inactive); (run 2) > 50000 nM (inactive); (run 3) > 50000 nM (inactive).

In the case of `CCN=C1S/C(=C\c2cc(C)n(-c3ccccc3)c2C)C(=O)N1CC`, the EC50 (run 1) was 635 nM, the EC50 (run 2) is 705 nM and the EC50 (run 3) was 465 nM.

`CN=C1S/C(=C\c2cc(C)n(-c3ccccc3Br)c2C)C(=O)N1C`: the EC50 (run 1) is > 50000 nM (inactive), the EC50 (run 2) was > 50000 nM (inactive) and the EC50 (run 3) was > 50000 nM (inactive).

As to `CN=C1S/C(=C/c2cc(C)n(-c3ccccc3C)c2C)C(=O)N1C`, the EC50 (run 1) was > 50000 nM (inactive) and the EC50 (run 2) was > 50000 nM (inactive). Moreover, the EC50 result (run 3) is “inactive”.

Consider `CN=C1S/C(=C\c2ccn(Cc3ccccc3)c2)C(=O)N1C`, for which the EC50 is > 50000 nM (inactive) (run 1), > 50000 nM (inactive) (run 2) and > 50000 nM (inactive) (run 3).

For `CCN=C1S/C(=C/c2cc(C)n(C(C)c3ccccc3)c2C)C(=O)N1CC` (stereo not drawn), the EC50 result by setting is: (run 1) “inactive”; (run 3) “inactive”. Besides, the EC50 (run 2) was > 50000 nM (inactive).

`COCCN=C1S/C(=C\c2cc(C)n(-c3ccc(F)cc3F)c2C)C(=O)N1C`: the EC50 is 37.7 nM and 51.4 nM (run 1); 79.1 nM (run 2).

In the case of `CN=C1S/C(=C/c2cc(C)n(-c3ccc(F)cc3F)c2C)C(=O)N1C`, the EC50 is 113 nM (run 1), 199 nM (run 2) and 317 nM (run 3).

As for `Cc1cc(/C=C2\SC(=Nc3ccccc3)NC2=O)c(C)n1-c1ccccc1F`, the EC50 (run 1) is > 50000 nM (inactive), the EC50 (run 2) is > 50000 nM (inactive) and the EC50 (run 3) is > 50000 nM (inactive).

Take `C/N=C1/SC(=Cc2cc(C)n(Cc3ccc(F)cc3F)c2C)C(=O)N1C`: the EC50 runs as follows: (run 1) 84.7 nM; (run 2) 195 nM; (run 3) 161 nM.

Consider `CN=C1S/C(=C/c2cc(C)n(-c3ccc(Cl)cc3F)c2C)C(=O)N1C`, for which the EC50 is, setting by setting: (run 1) 432 nM; (run 2) 686 nM; (run 3) 202 nM.

As to `CCN=C1S/C(=C\c2cc(C)n(-c3ccccc3F)c2C)C(=O)N1CC`, the concentration for a half-maximal effect (EC50) runs as follows: (run 1) 116 nM; (run 2) 268 nM; (run 3) 368 nM.

For the molecule `COCCN=C1S/C(=C\c2cc(C)n(Cc3ccccc3)c2C)C(=O)N1CCOC`, the EC50 is > 50000 nM (inactive) (run 1) and > 50000 nM (inactive) (run 2). Where the note is “run 3”, the EC50 entry was “inactive”.

As to `CN=C1NC(=O)/C(=C\c2cc(C)n(-c3cccc(F)c3)c2C)S1`, the EC50 runs as follows: (run 1) > 50000 nM (inactive); (run 2) > 50000 nM (inactive); (run 3) > 50000 nM (inactive).

For `CCN=C1S/C(=C/c2ccn(-c3ccc(F)cc3F)c2)C(=O)N1CC`, the EC50 entry (run 1) is “inactive”. The EC50 by setting is: (run 2) > 50000 nM (inactive); (run 3) 5390 nM.

On to `Cc1cc(/C=c2\sc3n(c2=O)CCCN=3)c(C)n1-c1ccccc1F`, for which the EC50 was > 50000 nM (inactive) (run 1), > 50000 nM (inactive) (run 2) and > 50000 nM (inactive) (run 3).

Take `CN=C1S/C(=C/c2cc(C)n(-c3cc(C)ccc3OC)c2C)C(=O)N1C`: the EC50 runs as follows: (run 1) > 50000 nM (inactive); (run 2) > 50000 nM (inactive); (run 3) > 50000 nM (inactive).

In the case of `CN=C1S/C(=C\c2cc(C)n(-c3ccc(F)cc3F)c2C)C(=O)N1CCOC`, the EC50 by setting is: (run 1) 1580 nM; (run 2) 1.85 nM.

`CN=C1NC(=O)/C(=C\c2cc(C)n(-c3ccccc3F)c2C)S1`: the EC50 is 5380 nM (run 1), 4530 nM (run 2) and 942 nM (run 3).

On to `CN=C1S/C(=C\c2ccn(-c3ccccc3F)c2)C(=O)N1C`, for which the EC50 is > 50000 nM (inactive) (run 1), > 50000 nM (inactive) (run 2) and > 50000 nM (inactive) (run 3).

With `Cc1cc(/C=C2\SC(=O)N(C)C2=O)c(C)n1-c1ccccc1F`, the EC50 was > 50000 nM (inactive) (run 1), > 50000 nM (inactive) (run 2) and 8960 nM (run 3).

Consider `CCN=C1S/C(=C/c2cc(C)n(-c3ccc(Cl)cc3F)c2C)C(=O)N1CC`, for which the EC50 is, setting by setting: (run 1) 490 nM; (run 2) 733 nM; (run 3) 370 nM.

Regarding `CCN=C1S/C(=C/c2cc(C)n(-c3ncccc3F)c2C)C(=O)N1CC`, the EC50 runs as follows: (run 1) 5310 nM; (run 3) 918 nM. The EC50 entry (run 2) was “inactive”.
